Experimental data published in patent US5340818A, “Methods and compositions for inhibiting tumor cell growth” (priority 1993, dated 1994).

Key:
L1210/0 cells = experiment: Cross-resistance studies: growth inhibition of doxorubicin-sensitive L1210/0 cells; assay type: cell-based; settings: L1210/0 (doxorubicin sensitive)
L1210/Dx cells = experiment: Cross-resistance studies: growth inhibition of doxorubicin-resistant L1210/Dx cells; assay type: cell-based

COc1cc(NS(C)(=O)=O)ccc1Nc1c2ccccc2nc2ccccc12 [m-AMSA]
IC50 (L1210/0 cells): 0.1 to 1 nM
(IC50) 0/(IC50) Dx (L1210/Dx cells; L1210/0 and L1210/Dx): 61-610
IC50 (L1210/Dx cells; Mus musculus, L1210/Dx (doxorubicin resistant)): 61 nM
